Reference: article PMC6225228, “Design, Synthesis and Evaluation of N-pyrazinylbenzamides as Potential Antimycobacterial Agents” (Molecules : A Journal of Synthetic Chemistry and Natural …, 2018)
Values after ≈ are worked out from the molar mass of the structure shown. Where two headings read alike, the source gives them in different places. Marks after values point to notes of the source that are not given here.

Key:
[1] = test system: Mycobacterium smegmatis CCM 4622 (ATCC 607); assay: Antimycobacterial microdilution, M. smegmatis; assay type: cell-based; conditions: Mycolicibacterium smegmatis, read-out: M. smeg. ATCC 607 MIC
[2] = test system: Mycobacterium tuberculosis H37Rv CNCTC My 331/88 (ATCC 27294); assay: Antimycobacterial microdilution MABA, M. tuberculosis; assay type: cell-based; conditions: for MIC: Mycobacterium tuberculosis
[3] = test system: M. avium ssp. avium CNCTC My 80/72 (ATCC 15769); assay: Antimycobacterial microdilution MABA, M. avium; assay type: cell-based, Mycobacterium avium; conditions: for MIC: Mycobacterium avium
[4] = test system: M. kansasii CNCTC My 235/80 (ATCC 12478); assay: Antimycobacterial microdilution MABA, M. kansasii; assay type: cell-based, Mycobacterium kansasii; conditions: for MIC: Mycobacterium kansasii
[5] = test system: Pseudomonas aeruginosa CCM 1961; assay: Antibacterial microdilution broth, PA; assay type: cell-based; conditions: Pseudomonas aeruginosa, read-out: MIC PA
[6] = test system: Staphylococcus aureus H 5996/08 methicillin resistant; assay: microbe, parasite or virus in culture; assay type: cell-based; conditions: Staphylococcus aureus, MRSA, read-out: MIC MRSA
[7] = test system: Aspergillus fumigatus 231; assay: Antifungal microdilution broth, AF; assay type: cell-based; conditions: read-out: MIC AF
[8] = test system: Enterococcus sp. J 14365/08; assay: Antibacterial microdilution broth, EF; assay type: cell-based; conditions: Enterococcus, read-out: MIC EF
[9] = test system: Candida albicans ATCC 44859; assay: Antifungal microdilution broth, CA; assay type: cell-based; conditions: Candida albicans, read-out: MIC CA
[10] = test system: Lichtheimia corymbifera 272; assay: Antifungal microdilution broth, LC; assay type: cell-based; conditions: read-out: MIC LC
[11] = test system: Candida tropicalis 156; assay: Antifungal microdilution broth, CT; assay type: cell-based; conditions: read-out: MIC CT
[12] = test system: Candida krusei E28; assay: Antifungal microdilution broth, CK; assay type: cell-based; conditions: Pichia kudriavzevii, read-out: MIC CK
[13] = test system: Trichophyton interdigitale 445; assay: Antifungal microdilution broth, TI; assay type: cell-based; conditions: read-out: MIC TI
[14] = test system: Staphylococcus epidermidis H 6966/08; assay: Antibacterial microdilution broth, SE; assay type: cell-based; conditions: Staphylococcus epidermidis, read-out: MIC SE
[15] = test system: Trichosporon asahii 1188; assay: Antifungal microdilution broth, TA; assay type: cell-based; conditions: read-out: MIC TA
[16] = test system: Candida glabrata 20/I; assay: Antifungal microdilution broth, CG; assay type: cell-based; conditions: Nakaseomyces glabratus, 20/I, read-out: MIC CG
[17] = test system: Staphylococcus aureus CCM 4516/08; assay: Antibacterial microdilution broth, SA; assay type: cell-based; conditions: Staphylococcus aureus
[18] = test system: Escherichia coli CCM 4517; assay: Antibacterial microdilution broth, EC; assay type: cell-based; conditions: Escherichia coli, read-out: MIC EC
[19] = Middlebrook 7H9 with OADC, resazurin
[20] = Middlebrook 7H9 with OADC growth supplement, pH = 6.6, MABA
[21] = Middlebrook 7H9 with OADC growth supplement, pH = 6.6, MABA, read-out: Mtb H37Rv ATCC 27294 MIC
[22] = ATCC15769, Middlebrook 7H9 with OADC, pH 6.6, MABA, read-out: M. avium ATCC 15769 MIC
[23] = ATCC12478, Middlebrook 7H9 with OADC, pH 6.6, MABA, read-out: M. kans. ATCC 12478 MIC
[24] = Middlebrook 7H9 with OADC, pH 6.6, MABA

SMILES: O=C(Nc1cncc(Cl)n1)c1ccccc1 [Compound 3a]
- MIC [1, 19]: ≥ 500 µg/mL
- Mtb H37Rv ATCC 27294 MIC [2, 20]: >100 µg/mL
- MIC [2, 21]: > 100 µg/mL
- MIC [3, 22]: > 100 µg/mL
- melting point: 152.8 to 153.6 °C
- MIC [4, 23]: > 100 µg/mL

SMILES: CCc1ccc(C(=O)Nc2cnccn2)cc1 [Compound 1i]
- MIC ([5]; CCM1961, 72 h): > 500 µM
- MIC ([5]; CCM1961, 120 h): > 500 µM
- MIC ([6]; 24 h): > 500 µM
- MIC ([6]; 48 h): > 500 µM
- MIC [1]: ≥ 500 µg/mL
- MIC ([2]; read-out: Mtb H37Rv ATCC 27294 MIC, Middlebrook 7H9 with OADC growth supplement, pH = 6.6, MABA): > 100 µg/mL
- MIC ([7]; Aspergillus fumigatus, 231, 24 h): > 500 µM
- MIC ([7]; Aspergillus fumigatus, 231, 48 h): > 500 µM
- MIC ([8]; SP.J14365/08, 24 h): 500 µM (≈ 114 µg/mL)
- MIC ([8]; SP.J14365/08, 48 h): 500 µM (≈ 114 µg/mL)
- MIC ([9]; ATCC44859, 24 h): > 500 µM
- MIC ([9]; ATCC44859, 48 h): > 500 µM
- MIC ([10]; Lichtheimia corymbifera, 272, 24 h): > 500 µM
- MIC ([10]; Lichtheimia corymbifera, 272, 48 h): > 500 µM
- MIC ([3]; ATCC15769, pH 6.6, read-out: M. avium ATCC 15769 MIC): > 100 µg/mL
- MIC ([11]; Candida tropicalis, 156, 24 h): > 500 µM
- MIC ([11]; Candida tropicalis, 156, 48 h): > 500 µM
- MIC ([12]; E28, 24 h): > 500 µM
- MIC ([12]; E28, 48 h): > 500 µM
- MIC ([13]; Trichophyton interdigitale, 445, 72 h): > 500 µM
- MIC ([13]; Trichophyton interdigitale, 445, 120 h): > 500 µM
- MIC ([14]; H6966/08, 24 h): 500 µM (≈ 114 µg/mL)
- MIC ([14]; H6966/08, 48 h): 500 µM (≈ 114 µg/mL)
- MIC ([15]; Trichosporon asahii, 1188, 24 h): > 500 µM
- MIC ([15]; Trichosporon asahii, 1188, 48 h): > 500 µM
- MIC ([16]; 24 h): > 500 µM
- MIC ([16]; 48 h): > 500 µM
- MIC ([17]; CCM4516, 24 h, read-out: MIC SA, 24 h): > 500 µM
- MIC ([17]; CCM4516, 48 h, read-out: MIC SA, 48 h): > 500 µM
- MIC ([4]; ATCC12478, pH 6.6, read-out: M. kans. ATCC 12478 MIC, Middlebrook 7H9 with OADC, pH 6.6, MABA): > 100 µg/mL
- MIC ([18]; CCM4517, 24 h): > 500 µM
- MIC ([18]; CCM4517, 48 h): > 500 µM

SMILES: COc1cccc(C(=O)Nc2cncc(Cl)n2)c1 [Compound 3f]
- MIC [1, 19]: ≥ 500 µg/mL
- Mtb H37Rv ATCC 27294 MIC [2, 20]: 50 µg/mL
- MIC [2, 21]: 50 µg/mL (≈ 190 µM)
- M. avium ATCC 15769 MIC [3, 24]: 100 ^c µg/mL
- MIC [3, 22]: 100 µg/mL (≈ 379 µM)
- melting point: 131.6 to 132.7 °C
- M. kans. ATCC 12478 MIC [4, 24]: 100 ^c µg/mL
- MIC [4, 23]: 100 µg/mL (≈ 379 µM)

SMILES: Cc1ccc(C(=O)Nc2cncc(Cl)n2)cc1 [Compound 3h]
- MIC [1, 19]: ≥ 500 µg/mL
- Mtb H37Rv ATCC 27294 MIC [2, 20]: >100 µg/mL
- MIC [2, 21]: > 100 µg/mL
- MIC [3, 22]: > 100 µg/mL
- melting point: 169.1 to 170 °C
- MIC [4, 23]: > 100 µg/mL
